# Experimental data published in ChEMBL document CHEMBL1201862, “PubChem BioAssay data set” (2004).
#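 A five-concentration, 48-hour dose response in 96-well plates underlies each endpoint, interpolated linearly between surrounding concentrations. GI50 is the concentration that inhibits growth by half.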 Active and inactive are the calls of the source. Cut-off read from the data, not from the text of the source: active = GI50 up to about 1.1 µM and inactive = higher.
# Experiments:
# Assay in all cases: DTP human tumour cell line panel, 48 h
# SNB-19 = test system: SNB-19
# SR = test system: SR
# TK-10 = test system: TK-10
# HOP-92 = test system: HOP-92
# SF-295 = test system: SF-295
# HT-29 = test system: HT-29
# HCT-116 = test system: HCT-116
# UACC-257 = test system: UACC-257
# RXF 393 = test system: RXF 393
# SK-MEL-5 = test system: SK-MEL-5
# SN12C = test system: SN12C
# Hs-578T = test system: Hs-578T
# LOX IMVI = test system: LOX IMVI
# T47D = test system: T47D
# KM12 = test system: KM12
# SK-MEL-2 = test system: SK-MEL-2
# M14 = test system: M14
# CAKI-1 = test system: CAKI-1
# SK-OV-3 = test system: SK-OV-3
# U-251 = test system: U-251
# COLO 205 = test system: COLO 205
# 786-0 = test system: 786-0
# OVCAR-5 = test system: OVCAR-5
# MDA-MB-435 = test system: MDA-MB-435
# DU-145 = test system: DU-145
# UO-31 = test system: UO-31
# SNB-75 = test system: SNB-75
# SF-268 = test system: SF-268
# MOLT-4 = test system: MOLT-4
# A549 = test system: A549
# NCI/ADR-RES = test system: NCI/ADR-RES
# HOP-62 = test system: HOP-62
# NCI-H23 = test system: NCI-H23
# ACHN = test system: ACHN
# HL-60 = test system: HL-60
# HCC 2998 = test system: HCC 2998
# NCI-H226 = test system: NCI-H226
# OVCAR-3 = test system: OVCAR-3
# PC-3 = test system: PC-3
# MCF7 = test system: MCF7
# A498 = test system: A498
# MDA-N = test system: MDA-N
# OVCAR-4 = test system: OVCAR-4
# SF-539 = test system: SF-539
# NCI-H460 = test system: NCI-H460
# Malme-3M = test system: Malme-3M
# HCT-15 = test system: HCT-15
# OVCAR-8 = test system: OVCAR-8
# RPMI-8226 = test system: RPMI-8226
# MDA-MB-231 = test system: MDA-MB-231
# BT-549 = test system: BT-549
# K562 = test system: K562
# IGROV-1 = test system: IGROV-1
# SW-620 = test system: SW-620
# UACC-62 = test system: UACC-62
# CCRF-CEM = test system: CCRF-CEM
# NCI-H522 = test system: NCI-H522
# SK-MEL-28 = test system: SK-MEL-28
# EKVX = test system: EKVX
structure (smiles),measurement,setting,value
Cc1cc(S(=O)(=O)Nc2nnc3cnc4ccccc4n23)c(S)cc1Cl,GI50,SNB-19,51.9 µM (inactive)
same,GI50,SR,> 100 µM (inactive)
same,GI50,TK-10,> 100 µM (inactive)
same,GI50,HOP-92,11.1 µM (inactive)
same,GI50,SF-295,> 100 µM (inactive)
same,GI50,HT-29,> 100 µM (inactive)
same,GI50,HCT-116,> 100 µM (inactive)
same,GI50,UACC-257,> 100 µM (inactive)
same,GI50,RXF 393,> 100 µM (inactive)
same,GI50,SK-MEL-5,> 41.7 µM (inactive)
same,GI50,SN12C,> 100 µM (inactive)
same,GI50,Hs-578T,57.8 µM (inactive)
same,GI50,LOX IMVI,> 100 µM (inactive)
same,GI50,T47D,> 100 µM (inactive)
same,GI50,KM12,> 83.6 µM (inactive)
same,GI50,SK-MEL-2,97.1 µM (inactive)
same,GI50,M14,> 100 µM (inactive)
same,GI50,CAKI-1,> 100 µM (inactive)
same,GI50,SK-OV-3,> 100 µM (inactive)
same,GI50,U-251,> 74.1 µM (inactive)
same,GI50,COLO 205,> 100 µM (inactive)
same,GI50,786-0,> 100 µM (inactive)
same,GI50,OVCAR-5,> 100 µM (inactive)
same,GI50,MDA-MB-435,> 100 µM (inactive)
same,GI50,DU-145,> 100 µM (inactive)
same,GI50,UO-31,35.2 µM (inactive)
same,GI50,SNB-75,> 54.5 µM (inactive)
same,GI50,SF-268,98.6 µM (inactive)
same,GI50,MOLT-4,> 100 µM (inactive)
same,GI50,A549,> 100 µM (inactive)
same,GI50,NCI/ADR-RES,> 100 µM (inactive)
same,GI50,HOP-62,79.4 µM (inactive)
same,GI50,NCI-H23,> 100 µM (inactive)
same,GI50,ACHN,6.73 µM (inactive)
same,GI50,HL-60,> 100 µM (inactive)
same,GI50,HCC 2998,> 100 µM (inactive)
same,GI50,NCI-H226,> 94.6 µM (inactive)
same,GI50,OVCAR-3,98.9 µM (inactive)
same,GI50,PC-3,> 100 µM (inactive)
same,GI50,MCF7,> 100 µM (inactive)
same,GI50,A498,> 100 µM (inactive)
same,GI50,MDA-N,> 100 µM (inactive)
same,GI50,OVCAR-4,> 100 µM (inactive)
same,GI50,SF-539,> 100 µM (inactive)
same,GI50,NCI-H460,51.5 µM (inactive)
same,GI50,Malme-3M,> 100 µM (inactive)
same,GI50,HCT-15,> 100 µM
same,GI50,OVCAR-8,> 52.1 µM (inactive)
same,GI50,RPMI-8226,> 100 µM (inactive)
same,GI50,MDA-MB-231,> 100 µM (inactive)
same,GI50,BT-549,> 88.5 µM (inactive)
same,GI50,K562,> 100 µM (inactive)
same,GI50,IGROV-1,> 100 µM (inactive)
same,GI50,SW-620,> 100 µM (inactive)
same,GI50,UACC-62,79.1 µM (inactive)
same,GI50,CCRF-CEM,> 100 µM (inactive)
same,GI50,NCI-H522,> 100 µM (inactive)
COc1cc2c3c(c1OC)C1(C=CC(=O)C=C1)CC3NCC2 (stereo not given),GI50,SNB-19,> 100 µM (inactive)
same,GI50,SR,> 100 µM (inactive)
same,GI50,SK-MEL-28,> 100 µM (inactive)
same,GI50,TK-10,> 100 µM (inactive)
same,GI50,HOP-92,> 100 µM (inactive)
same,GI50,SF-295,> 100 µM (inactive)
same,GI50,HT-29,> 100 µM (inactive)
same,GI50,HCT-116,> 100 µM (inactive)
same,GI50,UACC-257,> 100 µM (inactive)
same,GI50,RXF 393,89.7 µM (inactive)
same,GI50,SK-MEL-5,> 100 µM (inactive)
same,GI50,SN12C,> 100 µM (inactive)
same,GI50,Hs-578T,> 100 µM (inactive)
same,GI50,LOX IMVI,> 100 µM (inactive)
same,GI50,T47D,> 100 µM (inactive)
same,GI50,KM12,80 µM (inactive)
same,GI50,SK-MEL-2,> 100 µM (inactive)
same,GI50,M14,> 100 µM (inactive)
same,GI50,CAKI-1,> 100 µM (inactive)
same,GI50,SK-OV-3,> 100 µM (inactive)
same,GI50,U-251,> 100 µM (inactive)
same,GI50,COLO 205,> 100 µM (inactive)
same,GI50,786-0,44 µM (inactive)
same,GI50,OVCAR-5,> 100 µM (inactive)
same,GI50,MDA-MB-435,> 100 µM (inactive)
same,GI50,DU-145,> 100 µM (inactive)
same,GI50,SNB-75,80.5 µM (inactive)
same,GI50,SF-268,> 100 µM (inactive)
same,GI50,MOLT-4,> 100 µM (inactive)
same,GI50,A549,> 100 µM (inactive)
same,GI50,NCI/ADR-RES,> 100 µM (inactive)
same,GI50,HOP-62,> 100 µM (inactive)
same,GI50,NCI-H23,> 100 µM (inactive)
same,GI50,ACHN,> 100 µM (inactive)
same,GI50,HL-60,32.6 µM (inactive)
same,GI50,HCC 2998,> 100 µM (inactive)
same,GI50,NCI-H226,> 100 µM (inactive)
same,GI50,OVCAR-3,> 100 µM (inactive)
same,GI50,PC-3,> 100 µM (inactive)
same,GI50,MCF7,> 100 µM (inactive)
same,GI50,A498,> 100 µM (inactive)
same,GI50,MDA-N,> 100 µM (inactive)
same,GI50,OVCAR-4,> 100 µM (inactive)
same,GI50,SF-539,> 100 µM (inactive)
same,GI50,NCI-H460,> 100 µM (inactive)
same,GI50,Malme-3M,> 100 µM (inactive)
same,GI50,HCT-15,> 100 µM
same,GI50,OVCAR-8,> 100 µM (inactive)
same,GI50,RPMI-8226,> 100 µM (inactive)
same,GI50,MDA-MB-231,> 100 µM (inactive)
same,GI50,EKVX,> 100 µM (inactive)
same,GI50,BT-549,> 100 µM (inactive)
same,GI50,K562,> 100 µM (inactive)
same,GI50,IGROV-1,> 100 µM (inactive)
same,GI50,SW-620,> 100 µM (inactive)
same,GI50,UACC-62,> 100 µM (inactive)
same,GI50,CCRF-CEM,48.8 µM (inactive)
same,GI50,NCI-H522,71 µM (inactive)
